Measured values reported in patent US20160318866A1, “SUBSTITUTED BIPIPERIDINYL DERIVATIVES” (Bayer Pharma Aktiengesellschaft, priority 2013, published 2016).

Tests used:
[1] = system: diabetic (ZDFfa/fa) and healthy rats (Wistar); experiment: Assay of perfusion-enhancing substances (microcirculation), laser doppler at the paw; type: in vivo, rat; conditions: single oral dose
Source text: In diabetic (ZDFfa/fa) and healthy rats (Wistar), a laser doppler probe was fastened under anaesthesia conditions (isoflurane anaesthesia) at the sole of the paw for measuring cutaneous microcirculation. The test animals were once treated orally with the test substances. During the experiment, microperfusion and temperature of the lower extremities were documented continuously. Here, a temperature-sensitive laser doppler probe (Periflux, O2C) was fastened with adhesive to the paws of the animals, allowing the measurement of microperfusion and skin temperature. The microcirculation measurement values were measured on both paws 30 min after oral administration of the test substance. […] Also stated is the MED for the significant increase of skin temperature (ttest).

adult female Wistar rats = experiment: Radiotelemetric measurement of blood pressure and heart rate of conscious rats; type: in vivo, rat; conditions: 10 mg/kg, oral, telemetry over 24 hours
Source text: A commercially available telemetry system from Data Sciences International DSI, USA, was employed for the measurements on conscious rats described below. The system consists of 3 main components: (1) implantable transmitters (Physiotel® telemetry transmitter), (2) receivers (Physiotel® receiver), which are linked via a multiplexer (DSI Data Exchange Matrix) to a (3) data acquisition computer. The telemetry system makes it possible to continuously record blood pressure, heart rate and body motion of conscious animals in their usual habitat.
The studies were conducted on adult female Wistar rats with a body weight of >200 g. After transmitter implantation, the experimental animals were housed singly in type III Makrolon® cages. They had free access to standard feed and water. The day/night rhythm in the test laboratory was set by changing the illumination of the room.
The telemetry transmitters used (PA-C40, DSI) were surgically implanted under aseptic conditions in the experimental animals at least 14 days before the first experimental use.
For the implantation, the fasted animals were anaesthetized with isoflurane (IsoFlo®, Abbott, initiation 5%, maintenance 2%) and shaved and disinfected over a large area of their abdomens. […]
Each of the instrumented rats living in the system was assigned a separate receiving antenna (RPC-1 Receiver, DSI). […] The signals emitted were detected online by a data acquisition system (Dataquest™ A.R.T. for Windows, DSI) and processed accordingly.
In the standard procedure, the following were measured for 10-second periods in each case: (1) systolic blood pressure (SBP), (2) diastolic blood pressure (DBP), (3) mean arterial pressure (MAP), (4) heart rate (HR) and (5) activity (ACT). These parameters were measured over 24 hours after administration.
The acquisition of measurements was repeated under computer control at 5-minute intervals. The source data obtained as absolute values were corrected in the diagram with the currently measured barometric pressure (Ambient Pressure Reference Monitor, APR-1, DSI). […]

Structure (SMILES): COC[C@@]1(C)CCCN2CCc3c(oc4ccccc34)[C@@H]21 [ORM-12741, reference compound]
- factor by which microcirculation is improved at this dose compared to placebo ([1]; at the MED, 30 min after administration): 1.9 x
- MED [mg/kg] skin temperature ([1]; minimum effective dose for significant increase of skin temperature (ttest)): 0.01 mg/kg
- MED [mg/kg] microcirculation ([1]; minimum effective dose for significantly improved microcirculation vs placebo, 30 min after administration): 0.1 mg/kg
- blood pressure (adult female Wistar rats): additional reduction in blood pressure
